Measurements published in PubChem BioAssay AID1963432 (Molecular Pharmacology Branch, DTP, NCI, 2024).

Test system: SYO-1 complex spheroid growth, percent test/control
Experiment: Anticancer human tumor SYO-1 cell line growth inhibition [Asc];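 note: compound exposure lasted 7 days after spheroids grew 3 days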;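 for viability, T/C: 100% = DMSO vehicle control viability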
Conditions: for IC50: curve of first compound; for viability, T/C: stronger effect = lower value
How it was run: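 Concentration series start at each agent's clinical Cmax, or at 10 microM when none is established, and drop in half-log steps; agents are applied alone or together to complex spheroids built with HUVEC and hMSC.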

[1] = second compound 0.00949 µM, first compound 0.0316 µM
[2] = second compound 0.00949 µM, first compound 0.1 µM
[3] = second compound 0.00949 µM, first compound 0.316 µM
[4] = second compound 0.00949 µM, first compound 1 µM
[5] = second compound 0.03 µM, first compound 0.0316 µM
[6] = second compound 0.03 µM, first compound 0.1 µM
[7] = second compound 0.03 µM, first compound 0.316 µM
[8] = second compound 0.03 µM, first compound 1 µM
[9] = second compound 0.0949 µM, first compound 0.0316 µM
[10] = second compound 0.0949 µM, first compound 0.1 µM
[11] = second compound 0.0949 µM, first compound 0.316 µM
[12] = second compound 0.0949 µM, first compound 1 µM
[13] = second compound 0.3 µM, first compound 0.0316 µM
[14] = second compound 0.3 µM, first compound 0.1 µM
[15] = second compound 0.3 µM, first compound 0.316 µM
[16] = second compound 0.3 µM, first compound 1 µM
[17] = second compound 0.949 µM, first compound 0.0316 µM
[18] = second compound 0.949 µM, first compound 0.1 µM
[19] = second compound 0.949 µM, first compound 0.316 µM
[20] = second compound 0.949 µM, first compound 1 µM
[21] = second compound 3 µM, first compound 0.0316 µM
[22] = second compound 3 µM, first compound 0.1 µM
[23] = second compound 3 µM, first compound 0.316 µM
[24] = second compound 3 µM, first compound 1 µM

SMILES: C=CC(=O)N1CCN(c2nc(=O)n(-c3c(C)ccnc3C(C)C)c3nc(-c4c(O)cccc4F)c(F)cc23)C(C)C1 (centres undefined) + CCN1C(C(=O)NC23CCC(C(=O)O)(CC2)CC3)C(c2cccc(Cl)c2F)C2(C(=O)Nc3cc(Cl)ccc32)C12CCCCC2
- IC50 (second compound 0.00949 µM): > 10000 nM
- IC50 (second compound 0.03 µM): > 10000 nM
- IC50 (second compound 0.0949 µM): > 10000 nM
- IC50 (second compound 0.3 µM): < 31.6 nM
- IC50 (second compound 0.949 µM): < 31.6 nM
- IC50 (second compound 3 µM): < 31.6 nM
- viability, T/C [1]: 101%
- viability, T/C [2]: 104%
- viability, T/C [3]: 103%
- viability, T/C [4]: 103%
- viability, T/C (second compound 0.00949 µM, first compound 3.16 µM): 92%
- viability, T/C (second compound 0.00949 µM, first compound 10 µM): 89.1%
- viability, T/C [5]: 98%
- viability, T/C [6]: 94.7%
- viability, T/C [7]: 96.7%
- viability, T/C [8]: 103%
- viability, T/C (second compound 0.03 µM, first compound 3.16 µM): 97.6%
- viability, T/C (second compound 0.03 µM, first compound 10 µM): 81.8%
- viability, T/C [9]: 78.5%
- viability, T/C [10]: 84%
- viability, T/C [11]: 76.7%
- viability, T/C [12]: 79.4%
- viability, T/C (second compound 0.0949 µM, first compound 3.16 µM): 75.9%
- viability, T/C (second compound 0.0949 µM, first compound 10 µM): 56.2%
- viability, T/C [13]: 29.8%
- viability, T/C [14]: 25.3%
- viability, T/C [15]: 25.2%
- viability, T/C [16]: 20.8%
- viability, T/C (second compound 0.3 µM, first compound 3.16 µM): 21.3%
- viability, T/C (second compound 0.3 µM, first compound 10 µM): 12.2%
- viability, T/C [17]: 3.03%
- viability, T/C [18]: 4.04%
- viability, T/C [19]: 2.34%
- viability, T/C [20]: 2.88%
- viability, T/C (second compound 0.949 µM, first compound 3.16 µM): 2.48%
- viability, T/C (second compound 0.949 µM, first compound 10 µM): 2.88%
- viability, T/C [21]: 1.34%
- viability, T/C [22]: 1.23%
- viability, T/C [23]: 1.3%
- viability, T/C [24]: 1.29%
- viability, T/C (second compound 3 µM, first compound 3.16 µM): 1.12%
- viability, T/C (second compound 3 µM, first compound 10 µM): 1.29%

SMILES: CNC(C)C(=O)NC1CN(S(=O)(=O)c2cccc(S(=O)(=O)N3CCC4CCC(C(=O)NC(c5ccccc5)c5ccccc5)N4C(=O)C(NC(=O)C(C)NC)C3)c2)CCC2CCC(C(=O)NC(c3ccccc3)c3ccccc3)N2C1=O (centres undefined) + CCN1C(C(=O)NC23CCC(C(=O)O)(CC2)CC3)C(c2cccc(Cl)c2F)C2(C(=O)Nc3cc(Cl)ccc32)C12CCCCC2
- IC50 (second compound 0.00949 µM): > 1000 nM
- IC50 (second compound 0.03 µM): > 1000 nM
- IC50 (second compound 0.0949 µM): > 1000 nM
- IC50 (second compound 0.3 µM): < 3.16 nM
- IC50 (second compound 0.949 µM): < 3.16 nM
- IC50 (second compound 3 µM): < 3.16 nM
- viability, T/C (second compound 0.00949 µM, first compound 0.00316 µM): 109%
- viability, T/C (second compound 0.00949 µM, first compound 0.01 µM): 104%
- viability, T/C [1]: 104%
- viability, T/C [2]: 112%
- viability, T/C [3]: 113%
- viability, T/C [4]: 98.7%
- viability, T/C (second compound 0.03 µM, first compound 0.00316 µM): 99.2%
- viability, T/C (second compound 0.03 µM, first compound 0.01 µM): 99.9%
- viability, T/C [5]: 99.2%
- viability, T/C [6]: 105%
- viability, T/C [7]: 101%
- viability, T/C [8]: 96.6%
- viability, T/C (second compound 0.0949 µM, first compound 0.00316 µM): 85.7%
- viability, T/C (second compound 0.0949 µM, first compound 0.01 µM): 82.6%
- viability, T/C [9]: 76.7%
- viability, T/C [10]: 75.3%
- viability, T/C [11]: 81.2%
- viability, T/C [12]: 70.6%
- viability, T/C (second compound 0.3 µM, first compound 0.00316 µM): 26.2%
- viability, T/C (second compound 0.3 µM, first compound 0.01 µM): 20%
- viability, T/C [13]: 16.1%
- viability, T/C [14]: 15.6%
- viability, T/C [15]: 16%
- viability, T/C [16]: 13.4%
- viability, T/C (second compound 0.949 µM, first compound 0.00316 µM): 4.14%
- viability, T/C (second compound 0.949 µM, first compound 0.01 µM): 1.95%
- viability, T/C [17]: 1.29%
- viability, T/C [18]: 1.74%
- viability, T/C [19]: 0.96%
- viability, T/C [20]: 0.61%
- viability, T/C (second compound 3 µM, first compound 0.00316 µM): 1.42%
- viability, T/C (second compound 3 µM, first compound 0.01 µM): 1.29%
- viability, T/C [21]: 0.76%
- viability, T/C [22]: 1.16%
- viability, T/C [23]: 0.78%
- viability, T/C [24]: 0.82%
